The text below walks through data of ChEMBL document CHEMBL5465560, “Selectivity Literature for EUbOPEN Chemogenomic Library” (2024).

In series [1] the target is T1, Tyrosine-protein kinase TXK (Homo sapiens) (UniProt P42681).
T1 sequence (whole entry): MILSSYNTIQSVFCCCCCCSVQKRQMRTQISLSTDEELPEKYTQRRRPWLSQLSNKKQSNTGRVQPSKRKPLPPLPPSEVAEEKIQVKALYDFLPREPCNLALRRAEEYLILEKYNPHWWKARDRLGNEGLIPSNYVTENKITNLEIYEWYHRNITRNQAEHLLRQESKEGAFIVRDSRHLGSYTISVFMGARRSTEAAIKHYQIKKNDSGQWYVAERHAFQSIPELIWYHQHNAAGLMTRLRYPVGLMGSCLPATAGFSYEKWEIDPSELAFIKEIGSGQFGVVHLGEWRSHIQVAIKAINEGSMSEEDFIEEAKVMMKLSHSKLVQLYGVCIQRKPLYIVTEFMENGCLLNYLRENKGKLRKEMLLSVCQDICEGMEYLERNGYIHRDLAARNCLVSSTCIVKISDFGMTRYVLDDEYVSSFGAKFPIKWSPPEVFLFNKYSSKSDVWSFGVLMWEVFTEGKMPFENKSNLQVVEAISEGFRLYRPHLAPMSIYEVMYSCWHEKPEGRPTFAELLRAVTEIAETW
Nature of the series: Selectivity interaction (Kinase panel (Z-LYTE Assay)) EUB0001632a TXK. To be noted: at 10 µM.

The target in series [2] is Mitogen-activated protein kinase 3 (Homo sapiens, UniProt P27361). Description: Selectivity interaction (Ambit KINOMEscan and KiNATiv profiling in Jurkat cells) EUB0000090b MAPK3. The class given is cell-based. The settings on record: at 1 µM.
Series [3] has as its target Microtubule-associated serine/threonine-protein kinase 1 (Homo sapiens) (UniProt Q9Y2H9). Description: Selectivity interaction (Ambit KINOMEscan and KiNATiv profiling in Jurkat cells) EUB0000090b MAST1. The series is classed as cell-based. To be noted: at 1 µM.
Series [4] addresses T2, Ephrin type-A receptor 6 (Homo sapiens) (UniProt Q9UF33).
T2 sequence (whole entry): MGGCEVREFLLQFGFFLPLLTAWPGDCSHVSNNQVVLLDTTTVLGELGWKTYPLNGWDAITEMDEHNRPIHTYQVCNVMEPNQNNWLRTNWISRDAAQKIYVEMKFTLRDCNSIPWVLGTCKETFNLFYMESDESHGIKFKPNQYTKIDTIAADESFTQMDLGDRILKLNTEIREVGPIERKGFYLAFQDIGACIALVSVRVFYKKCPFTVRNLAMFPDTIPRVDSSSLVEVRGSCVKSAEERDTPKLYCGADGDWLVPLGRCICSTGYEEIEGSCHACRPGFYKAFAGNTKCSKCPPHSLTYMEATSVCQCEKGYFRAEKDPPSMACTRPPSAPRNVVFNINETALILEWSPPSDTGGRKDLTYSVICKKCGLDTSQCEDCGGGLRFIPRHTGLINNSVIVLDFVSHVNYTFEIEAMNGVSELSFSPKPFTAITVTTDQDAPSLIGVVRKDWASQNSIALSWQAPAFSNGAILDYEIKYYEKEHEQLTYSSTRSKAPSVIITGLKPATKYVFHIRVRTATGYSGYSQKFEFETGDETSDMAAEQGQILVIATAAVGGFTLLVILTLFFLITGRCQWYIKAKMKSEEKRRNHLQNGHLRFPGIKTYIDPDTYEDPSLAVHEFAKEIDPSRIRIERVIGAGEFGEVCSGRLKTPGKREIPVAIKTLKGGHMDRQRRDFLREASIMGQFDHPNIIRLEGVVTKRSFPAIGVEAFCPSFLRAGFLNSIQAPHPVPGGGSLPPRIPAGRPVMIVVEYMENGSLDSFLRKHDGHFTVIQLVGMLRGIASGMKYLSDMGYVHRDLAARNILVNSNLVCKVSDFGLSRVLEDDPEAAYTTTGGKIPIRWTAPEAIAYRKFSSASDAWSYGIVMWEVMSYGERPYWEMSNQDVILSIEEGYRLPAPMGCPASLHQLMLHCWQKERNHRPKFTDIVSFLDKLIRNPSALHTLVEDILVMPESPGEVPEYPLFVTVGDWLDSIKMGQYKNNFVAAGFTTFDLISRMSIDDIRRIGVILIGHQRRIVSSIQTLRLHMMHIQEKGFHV
Description: Selectivity interaction (KinomeScan (DiscoverX)) EUB0000607a EPHA6. To be noted: at 10 µM.

For series [5], the target named is 5'-AMP-activated protein kinase catalytic subunit alpha-1 (Homo sapiens, UniProt Q13131). Description: Selectivity interaction (KinomeScan (DiscoverX)) EUB0000607a PRKAA1. To be noted: at 10 µM.
Chain of 5'-AMP-activated protein kinase catalytic subunit alpha-1 (Q13131 whole entry, looked up): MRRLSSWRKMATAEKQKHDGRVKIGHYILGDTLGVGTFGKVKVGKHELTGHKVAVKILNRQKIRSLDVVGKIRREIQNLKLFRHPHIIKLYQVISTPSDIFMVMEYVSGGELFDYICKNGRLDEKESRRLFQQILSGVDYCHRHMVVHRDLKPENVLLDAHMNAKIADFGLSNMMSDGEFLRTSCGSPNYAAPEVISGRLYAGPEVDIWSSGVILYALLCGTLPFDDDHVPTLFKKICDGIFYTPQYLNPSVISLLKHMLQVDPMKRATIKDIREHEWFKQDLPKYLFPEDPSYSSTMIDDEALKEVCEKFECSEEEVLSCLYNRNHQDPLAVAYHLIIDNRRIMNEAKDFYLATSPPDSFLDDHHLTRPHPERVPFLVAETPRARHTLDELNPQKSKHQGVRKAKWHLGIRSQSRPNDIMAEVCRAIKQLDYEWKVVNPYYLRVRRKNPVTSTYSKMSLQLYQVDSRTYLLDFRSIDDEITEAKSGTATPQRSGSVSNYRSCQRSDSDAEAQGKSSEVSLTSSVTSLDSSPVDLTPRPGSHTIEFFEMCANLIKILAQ
Series [6] has as its target Tyrosine-protein kinase Fes/Fps (Homo sapiens) (UniProt P07332). Nature of the series: Selectivity interaction (KinomeScan (DiscoverX)) EUB0000229b FES. The settings on record: at 10 µM.
Series [7] addresses Cyclin-dependent kinase 15 (Homo sapiens) (UniProt Q96Q40). Description: Selectivity interaction (KinomeScan (DiscoverX)) EUB0001079a CDK15. To be noted: at 1 µM.
Series [8] concerns the target aryl hydrocarbon receptor (AHR) (Homo sapiens, UniProt P35869). Nature of the series: Selectivity interaction (Panel of kinases, GPCRs, ion channels and transporters (enzymatic assay)) EUB0000266bCl AHR.
Series [9] addresses Cyclin-dependent kinase 9 (Homo sapiens, UniProt P50750). Nature of the series: Selectivity interaction (Kinase panel (Invitrogen)) EUB0000639a CDK9. To be noted: at 200 nM.
Series [10] has as its target Tyrosine-protein kinase Lyn (Homo sapiens, UniProt P07948). Nature of the series: Selectivity interaction (KinomeScan (DiscoverX)) EUB0001049a LYN. The settings on record: at 1 µM.
Series [11] concerns the target Tyrosine-protein kinase ABL2 (Homo sapiens, UniProt P42684). Nature of the series: Selectivity interaction (ProQinase) EUB0000171b ABL2.
The target in series [12] is Proto-oncogene tyrosine-protein kinase ROS (Homo sapiens) (UniProt P08922). Description: Selectivity interaction (KinomeScan (DiscoverX)) EUB0000092b ROS1. The settings on record: at 10 µM.
In series [13] the target is Ribosomal protein S6 kinase alpha-5 (Homo sapiens) (UniProt O75582). Description: Selectivity interaction (Kinase panel (DSF assay)) EUB0001559a RPS6KA5. Background: Differential scanning fluorimetry follows unfolding on heating by fluorescence.
Chain of Ribosomal protein S6 kinase alpha-5 (Homo sapiens) (O75582 whole entry, looked up): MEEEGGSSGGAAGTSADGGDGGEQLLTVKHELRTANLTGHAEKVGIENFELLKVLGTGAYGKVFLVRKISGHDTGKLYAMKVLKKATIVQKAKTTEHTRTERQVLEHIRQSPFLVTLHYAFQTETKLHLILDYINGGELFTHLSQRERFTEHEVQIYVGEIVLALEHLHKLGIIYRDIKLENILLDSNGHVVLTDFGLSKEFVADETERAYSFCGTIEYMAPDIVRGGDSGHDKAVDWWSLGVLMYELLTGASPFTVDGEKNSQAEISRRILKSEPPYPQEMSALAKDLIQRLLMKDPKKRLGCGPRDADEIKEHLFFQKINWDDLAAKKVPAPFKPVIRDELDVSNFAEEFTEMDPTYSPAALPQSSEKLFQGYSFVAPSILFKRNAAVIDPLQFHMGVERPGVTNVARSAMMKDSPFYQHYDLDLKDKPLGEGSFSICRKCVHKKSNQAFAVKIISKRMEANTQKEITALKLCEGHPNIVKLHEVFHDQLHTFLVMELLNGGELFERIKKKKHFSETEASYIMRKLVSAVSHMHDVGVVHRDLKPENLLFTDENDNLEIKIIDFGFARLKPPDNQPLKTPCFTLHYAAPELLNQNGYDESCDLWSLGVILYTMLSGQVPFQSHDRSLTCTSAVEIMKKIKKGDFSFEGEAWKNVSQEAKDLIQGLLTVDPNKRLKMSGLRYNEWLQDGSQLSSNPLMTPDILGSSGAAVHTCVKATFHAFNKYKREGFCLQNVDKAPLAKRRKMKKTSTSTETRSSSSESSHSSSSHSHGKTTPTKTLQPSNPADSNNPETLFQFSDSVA
Series [14] concerns the target Fibroblast growth factor receptor 3 (Homo sapiens, UniProt P22607). Description: Selectivity interaction (Kinase panel (DSF assay)) EUB0001559a FGFR3.
Series [15] deals with Serine/threonine-protein kinase RIO2 (Homo sapiens) (UniProt Q9BVS4). Nature of the series: Selectivity interaction (KinomeScan (DiscoverX)) EUB0001550a RIOK2. The settings on record: at 1 µM.
In series [16] the target is Serine/threonine-protein kinase mTOR (Homo sapiens, UniProt P42345). Nature of the series: Selectivity interaction (KinomeScan (DiscoverX)) EUB0000595a MTOR. To be noted: at 10 µM.

Bounds are passed on as bounds.

Chain of Tyrosine-protein kinase ABL2 (P42684 whole entry): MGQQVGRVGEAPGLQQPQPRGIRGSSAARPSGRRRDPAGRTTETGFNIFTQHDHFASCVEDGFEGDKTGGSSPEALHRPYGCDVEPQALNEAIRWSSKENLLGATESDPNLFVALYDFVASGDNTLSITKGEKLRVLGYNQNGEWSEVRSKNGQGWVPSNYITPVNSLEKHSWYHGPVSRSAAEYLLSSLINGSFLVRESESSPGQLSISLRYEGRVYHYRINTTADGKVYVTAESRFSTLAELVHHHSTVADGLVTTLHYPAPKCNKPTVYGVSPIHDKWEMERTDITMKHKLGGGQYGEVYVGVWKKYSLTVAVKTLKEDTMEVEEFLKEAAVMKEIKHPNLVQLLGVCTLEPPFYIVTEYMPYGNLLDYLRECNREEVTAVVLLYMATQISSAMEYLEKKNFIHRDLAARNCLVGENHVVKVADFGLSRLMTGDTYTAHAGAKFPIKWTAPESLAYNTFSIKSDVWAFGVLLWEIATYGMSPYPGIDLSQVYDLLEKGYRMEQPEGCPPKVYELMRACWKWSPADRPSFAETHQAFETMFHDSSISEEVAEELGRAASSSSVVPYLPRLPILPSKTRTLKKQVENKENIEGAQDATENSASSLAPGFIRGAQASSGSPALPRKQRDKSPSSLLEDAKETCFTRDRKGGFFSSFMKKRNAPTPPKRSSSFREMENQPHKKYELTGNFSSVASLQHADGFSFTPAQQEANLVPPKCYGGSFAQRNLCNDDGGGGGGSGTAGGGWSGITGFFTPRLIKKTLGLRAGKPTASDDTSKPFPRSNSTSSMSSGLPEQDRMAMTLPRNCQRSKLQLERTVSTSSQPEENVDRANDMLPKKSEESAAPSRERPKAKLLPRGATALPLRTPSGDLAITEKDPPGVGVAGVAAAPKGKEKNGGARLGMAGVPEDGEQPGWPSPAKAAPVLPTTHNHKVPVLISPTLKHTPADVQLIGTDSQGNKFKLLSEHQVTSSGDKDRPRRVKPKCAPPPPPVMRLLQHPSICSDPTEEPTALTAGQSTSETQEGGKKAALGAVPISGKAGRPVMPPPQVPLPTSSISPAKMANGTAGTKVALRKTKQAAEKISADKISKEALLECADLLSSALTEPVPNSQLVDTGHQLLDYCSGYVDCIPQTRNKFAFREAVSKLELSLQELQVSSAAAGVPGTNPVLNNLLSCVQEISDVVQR
Chain of Microtubule-associated serine/threonine-protein kinase 1 (Homo sapiens) (Q9Y2H9 whole entry, looked up): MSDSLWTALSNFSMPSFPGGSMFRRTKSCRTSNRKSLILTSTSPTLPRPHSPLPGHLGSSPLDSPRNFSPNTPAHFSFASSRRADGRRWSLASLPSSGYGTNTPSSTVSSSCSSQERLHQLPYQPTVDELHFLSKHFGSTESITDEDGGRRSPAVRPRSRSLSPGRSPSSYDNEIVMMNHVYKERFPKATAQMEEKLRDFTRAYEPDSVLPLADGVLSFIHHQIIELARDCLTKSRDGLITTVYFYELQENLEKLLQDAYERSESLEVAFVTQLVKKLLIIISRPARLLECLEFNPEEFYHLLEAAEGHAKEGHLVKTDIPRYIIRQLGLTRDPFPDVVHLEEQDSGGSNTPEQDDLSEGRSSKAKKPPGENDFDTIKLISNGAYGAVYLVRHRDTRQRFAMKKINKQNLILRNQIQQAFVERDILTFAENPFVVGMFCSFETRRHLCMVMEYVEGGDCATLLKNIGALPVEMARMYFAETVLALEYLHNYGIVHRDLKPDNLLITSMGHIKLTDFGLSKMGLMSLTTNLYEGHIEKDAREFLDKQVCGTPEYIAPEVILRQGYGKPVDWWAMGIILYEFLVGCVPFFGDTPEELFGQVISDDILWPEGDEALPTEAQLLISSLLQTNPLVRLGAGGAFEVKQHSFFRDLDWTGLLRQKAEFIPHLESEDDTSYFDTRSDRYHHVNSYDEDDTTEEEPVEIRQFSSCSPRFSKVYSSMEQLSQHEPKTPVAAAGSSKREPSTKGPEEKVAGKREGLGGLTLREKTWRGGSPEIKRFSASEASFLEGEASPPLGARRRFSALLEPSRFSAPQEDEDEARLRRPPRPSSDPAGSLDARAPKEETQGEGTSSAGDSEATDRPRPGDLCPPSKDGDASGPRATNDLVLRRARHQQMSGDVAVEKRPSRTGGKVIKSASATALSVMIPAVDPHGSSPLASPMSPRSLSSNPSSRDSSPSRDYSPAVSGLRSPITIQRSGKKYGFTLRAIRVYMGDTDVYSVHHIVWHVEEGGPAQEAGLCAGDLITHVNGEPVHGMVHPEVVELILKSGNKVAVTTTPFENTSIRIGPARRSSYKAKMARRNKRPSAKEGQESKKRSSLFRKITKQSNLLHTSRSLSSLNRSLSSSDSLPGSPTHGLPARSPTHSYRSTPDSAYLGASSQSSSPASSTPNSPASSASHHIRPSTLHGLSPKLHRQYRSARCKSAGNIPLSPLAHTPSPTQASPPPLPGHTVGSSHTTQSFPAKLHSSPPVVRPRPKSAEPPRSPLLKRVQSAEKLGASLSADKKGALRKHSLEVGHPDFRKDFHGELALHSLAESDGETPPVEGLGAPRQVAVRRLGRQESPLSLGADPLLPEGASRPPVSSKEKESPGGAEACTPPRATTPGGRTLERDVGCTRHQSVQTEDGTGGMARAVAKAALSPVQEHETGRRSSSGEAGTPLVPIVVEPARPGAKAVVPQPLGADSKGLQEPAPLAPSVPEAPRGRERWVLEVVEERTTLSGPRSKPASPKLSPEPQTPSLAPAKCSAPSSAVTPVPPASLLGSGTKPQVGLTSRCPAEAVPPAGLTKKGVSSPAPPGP
Chain of Tyrosine-protein kinase Fes/Fps (Homo sapiens) (P07332 whole entry): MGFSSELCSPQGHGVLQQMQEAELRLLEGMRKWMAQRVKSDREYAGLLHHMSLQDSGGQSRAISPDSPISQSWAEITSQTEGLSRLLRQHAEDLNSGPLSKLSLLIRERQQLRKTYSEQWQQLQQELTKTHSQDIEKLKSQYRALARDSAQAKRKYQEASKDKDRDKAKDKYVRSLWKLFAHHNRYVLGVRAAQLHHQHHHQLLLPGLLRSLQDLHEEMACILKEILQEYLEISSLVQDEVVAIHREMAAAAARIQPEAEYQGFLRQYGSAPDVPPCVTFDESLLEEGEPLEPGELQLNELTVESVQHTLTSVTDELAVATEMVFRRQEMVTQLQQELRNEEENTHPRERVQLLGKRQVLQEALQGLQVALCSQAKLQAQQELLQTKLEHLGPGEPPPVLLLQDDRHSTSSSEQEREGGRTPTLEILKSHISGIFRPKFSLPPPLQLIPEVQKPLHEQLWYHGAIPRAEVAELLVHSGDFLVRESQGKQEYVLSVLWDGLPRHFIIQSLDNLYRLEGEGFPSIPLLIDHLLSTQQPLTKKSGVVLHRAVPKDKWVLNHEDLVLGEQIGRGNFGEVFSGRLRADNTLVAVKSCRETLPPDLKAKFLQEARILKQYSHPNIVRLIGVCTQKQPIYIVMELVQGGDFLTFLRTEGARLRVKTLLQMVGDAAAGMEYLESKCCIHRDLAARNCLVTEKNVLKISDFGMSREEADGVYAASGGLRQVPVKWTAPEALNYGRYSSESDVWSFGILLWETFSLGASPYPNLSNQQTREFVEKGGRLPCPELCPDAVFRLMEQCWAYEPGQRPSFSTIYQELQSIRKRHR

On to `Cn1cc(-n2cnc3c(NCc4nc5cc(Cl)c(Cl)cc5[nH]4)nc(N4CCOCC4)nc32)cn1`, for which, in series [1], the % of control came to 12.2%.

Take `CN(C)C/C=C/C(=O)Nc1ccc(C(=O)N2CCCC(Nc3ncc(Cl)c(-c4c[nH]c5ccccc45)n3)C2)cc1` (configuration not stated): the % of control in series [2] was determined as 84%; in [3], 95%.

On to `CNC(=O)Nc1ccc(-c2nc(N3CC4CCC(C3)O4)c3cnn(C4CCC5(CC4)OCCO5)c3n2)cc1`, for which the results for the % of control in series [4] and in series [5] were 98% and 94%, respectively.

In series [6], `COc1cc(N(C)c2ccnc3ccc(C(F)(F)F)cc23)cc(OC)c1OC` returned a % binding of 100%.

`Nc1cnc(N2CCc3cc(S(=O)(=O)Nc4c(F)cc(Cl)cc4F)cc(N4CCCC4=O)c32)nc1` [TP-020n] displayed a % of control in series [7] of 80%.

The molecule `CCn1c(-c2nc3cc(C(=O)N4CCCC(N)C4)ccc3n2C)cc2ccccc21` (configuration not stated) gave an XC50 in series [8] greater than 100 µM.

Turning to `CC[C@@H]1[C@H](F)C(=O)N[C@@H]1COc1nccc2cc(C(N)=O)c(OC)cc12` [ZIMLOVISERTIB], the % of inhibition in [9] worked out at 4.37%.

For `COc1cc(Nc2nc(C)cc(-c3cnn4nc(OC)ccc34)n2)cc(C(F)(F)F)c1`, the % of control in series [10] is 89%.

In the case of `C=CC(=O)Nc1cccc(C(=O)Nc2ccc(Nc3cc(-c4[nH]c(SC)nc4C)ccn3)cc2)c1`, the % of control is 74% in series [11] (at 1 µM) and 84% in series [11] (at 5 µM).

Consider `CCC(=O)N1CCN(c2ccc(-n3c(=O)ccc4cnc5ccc(-c6cnc7ccccc7c6)cc5c43)cc2C(F)(F)F)CC1`, for which the % of control in series [12] was 71%.

As to `CN(C(=O)c1cnn2cccnc12)c1cc2c(cc1N1CCOCC1)C(=O)N(C[C@@H](F)C(C)(C)O)C2`, the dTM is 0.3 K in series [13] and -0.3 K in [14].

Consider `CN(C)CC#Cc1ccc2[nH]c3c(c2c1)-c1nc(N)ncc1CCC3`, for which the % of control in [15] was 32%.

In series [16], `COCC(=O)NC/C=C/c1ccc2ncnc(Nc3ccc(Oc4ccc(C)nc4)c(C)c3)c2c1` [CP-724714] yielded a % of control of 79%.
